Patent US6352998B2, “Pharmaceutical compositions” (Novartis AG, priority 1997, dated 2002)

Test system: chronic plaque psoriasis
Assay: Topical treatment of chronic plaque psoriasis in humans, once a day
Type: in vivo
Conditions: topical application of 0.01 to 1% w/w once a day

Compound: [3S-[3R*[E(1S*,3S*,4S*)],4S*,5R*,8S*,9E,12R*,-14R*,15S*,16R*,18S*,19S*,26aR*]]-5,6,8,11,12,13,14,15,16,17,18,19,24,25,26,26a-hexadecahydro-5,19-dihydroxy-3-(3-hydroxymethylcyclopentyl)-1-methylethenyl)]-14,16-dimethoxy-4,10,12,18,-tetramethyl-8-ethyl-15,19-epoxy-3H-pyrido[2,1-c][1,4]oxaazacyclotricosine-1,7,20,21(4H,23H)-tetrone [Compound 2]
- Efficacy in the treatment of chronic plaque psoriasis: effective

Compound: CC[C@@H]1/C=C(\C)C[C@H](C)C[C@H](OC)[C@H]2O[C@@](O)(C(=O)C(=O)N3CCCC[C@H]3C(=O)O[C@H](/C(C)=C/[C@@H]3CC[C@@H](O)[C@H](OC)C3)[C@H](C)[C@@H](O)CC1=O)[C@H](C)C[C@@H]2OC (relative stereo) [Compound 3, [3S-[3R*[E(1S*,3S*,4S*)],4S*,5R*,8S*,9E,12R*,14R*,15S*,16R*,18S*,-19S*,26aR*]]-5,6,8,11,12,13,14,15,16,17,18,19,24,25,26,26a-hexadecahydro-5,19-dihydroxy-3-[2-(4-hydroxy-3-methoxy-cyclohexyl)-1-methylethenyl)]-14,16-dimethoxy4,10,12,18,-tetramethyl-8-ethyl-15,19-epoxy-3H-pyrido[2,1-c][1,4]oxaazacyclotricosine-1,7,20,21(4H,23H)-tetrone]
- Efficacy in the treatment of chronic plaque psoriasis: effective
